target: T1, Full-length, GST-tagged, human CaMKIIδ (Homo sapiens, UniProt Q13557); test: CaMKIIδ binding assay (TR-FRET with BODIPY-labeled probe ligand); settings: CaMKIIδ binding assay, results of Table 2
T1 construct: Full-Length, Glutathione-S-Transferase(GST)-Tagged, Human CaMKIIδ was purchased from Carna Biosciences; purchased Carna Biosciences 02-111
How it was run: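 Compounds were tested as 4-fold, eight-point series for 1 hr at room temperature, and IC50 was obtained by logistic fitting against a 3 μM parent-compound control. Signal came from displacement of a 300 nM BODIPY ligand from 0.5 nM GST-CaMKIIδ, detected via Tb-anti-GST in calmodulin/Ca2+ (pH 7.6).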

T1 sequence (Q13557 1-478 isoform Q13557-12): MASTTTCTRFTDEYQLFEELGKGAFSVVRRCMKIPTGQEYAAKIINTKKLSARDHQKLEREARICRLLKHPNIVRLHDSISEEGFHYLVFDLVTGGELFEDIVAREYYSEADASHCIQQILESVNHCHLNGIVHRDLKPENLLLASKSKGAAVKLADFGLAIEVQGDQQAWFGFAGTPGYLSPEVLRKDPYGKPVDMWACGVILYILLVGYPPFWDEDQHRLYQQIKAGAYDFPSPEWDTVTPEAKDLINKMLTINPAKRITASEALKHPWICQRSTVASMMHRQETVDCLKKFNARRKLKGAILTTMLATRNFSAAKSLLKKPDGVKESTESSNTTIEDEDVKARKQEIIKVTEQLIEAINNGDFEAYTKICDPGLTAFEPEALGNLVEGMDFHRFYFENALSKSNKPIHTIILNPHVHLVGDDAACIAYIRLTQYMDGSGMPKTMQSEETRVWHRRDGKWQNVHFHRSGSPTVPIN

Question: With `C[C@@H](Cn1cnnn1)Oc1cc(-c2cnc(Nc3cc(N4CCC(N5CCOCC5)CC4)cnc3OCC(F)(F)F)nc2)ccc1Cl` [Example 581, (S)-5-(3-((1-(1H-tetrazol-1-yl)propan-2-yl)oxy)-4-chlorophenyl)-N-(5-(4-morpholinopiperidin-1-yl)-2-(2,2,2-trifluoroethoxy)pyridin-3-yl)pyrimidin-2-amine] as the compound, how does the IC50 read?
Answer: < 10 nM

Question: With `COc1cc2c(cc1Nc1ncc(-c3ccc(Cl)c(O[C@@H](C)Cn4cnnn4)c3)cn1)C(=O)N(C1CCOCC1)C2` [Example 438, (S)-6-((5-(3-((1-(1H-tetrazol-1-yl)propan-2-yl)oxy)-4-chlorophenyl)pyrimidin-2-yl)amino)-5-methoxy-2-(tetrahydro-2H-pyran-4-yl)isoindolin-1-one] as the compound, how does the IC50 read?
Answer: 10 to 100 nM

Question: How did the IC50 turn out when `C[C@@H](Cn1cnnn1)Oc1cc(-c2cnc(Nc3cn(C4CCN(CC(F)F)CC4)nc3C(F)(F)F)nc2)ccc1Cl` [Example 485, (S)-5-(3-((1-(1H-tetrazol-1-yl)propan-2-yl)oxy)-4-chlorophenyl)-N-(1-(1-(2,2-difluoroethyl)piperidin-4-yl)-3-(trifluoromethyl)-1H-pyrazol-4-yl)pyrimidin-2-amine] was run?
Answer: 10 to 100 nM

Question: Which IC50 does the source give for `COc1cc2c(cc1Nc1ncc(-c3ccc(Cl)c(O[C@@H](C)Cn4cnnn4)c3)cn1)CCN(C1COC1)C2` [Example 468, (S)-N-(5-(3-((1-(1H-tetrazol-1-yl)propan-2-yl)oxy)-4-chlorophenyl)pyrimidin-2-yl)-7-methoxy-2-(oxetan-3-yl)-1,2,3,4-tetrahydroisoquinolin-6-amine] here?
Answer: < 10 nM

Question: `COCC(=O)N1CCc2cc(OC)c(Nc3ncc(-c4ccc(Cl)c(O[C@@H](C)Cn5cnnn5)c4)cn3)cc2C1` [Example 500, (S)-1-(7-((5-(3-((1-(1H-tetrazol-1-yl)propan-2-yl)oxy)-4-chlorophenyl)pyrimidin-2-yl)amino)-6-methoxy-3,4-dihydroisoquinolin-2(1H)-yl)-2-methoxyethan-1-one] was tested. Which IC50 did it give?
Answer: 10 to 100 nM

Question: How did the IC50 turn out when `COc1cc(C2=CCN(C3COC3)CC2)c(C)cc1Nc1ncc(-c2ccc(C#N)c(O[C@@H](C)Cn3cnnn3)c2)cn1` [Example 530, (S)-2-((1-(1H-tetrazol-1-yl)propan-2-yl)oxy)-4-(2-((2-methoxy-5-methyl-4-(1-(oxetan-3-yl)-1,2,3,6-tetrahydropyridin-4-yl)phenyl)amino)pyrimidin-5-yl)benzonitrile] was run?
Answer: < 10 nM

Question: How did the IC50 turn out when “(S)-5-(3-((1-(1H-tetrazol-1-yl)propan-2-yl)oxy)-4-chlorophenyl)-N-(5-(piperidin-4-(trifluoromethoxy)phenyl)pyrimidin-2-amine [Example 532]” was run?
Answer: < 10 nM

same assay, conditions: CaMKIIδ binding assay; activity class per Table 2

Question: Which IC50 does the source give for `C[C@@H](Cn1cnnn1)Oc1cc(-c2cnc(Nc3cn(Cc4cccc(=O)[nH]4)nc3OCC(F)(F)F)nc2)ccc1Cl` [Example 929, (S)-6-((4-((5-(3-((1-(1H-tetrazol-1-yl)propan-2-yl)oxy)-4-chlorophenyl)pyrimidin-2-yl)amino)-3-(2,2,2-trifluoroethoxy)-1H-pyrazol-1-yl)methyl)pyridin-2(1H)-one] here?
Answer: < 10 nM

Question: For `CC(C)c1nn(C2CC3(C2)CN(CC(C)(C)O)C3)cc1Nc1ncc(-c2ccc(Cl)c(O[C@@H](C)Cn3cnnn3)c2)cn1` [Example 947, (S)-1-(6-(4-((5-(3-((1-(1H-tetrazol-1-yl)propan-2-yl)oxy)-4-chlorophenyl)pyrimidin-2-yl)amino)-3-isopropyl-1H-pyrazol-1-yl)-2-azaspiro[3.3]heptan-2-yl)-2-methylpropan-2-ol], which IC50 is on record?
Answer: < 10 nM

Question: How did the IC50 turn out when `C[C@@H](Cn1cnnn1)Oc1cc(-c2cnc(Nc3cn(C4CC5(C4)CN(C4CCOCC4)C5)nc3C(F)(F)C(F)(F)F)nc2)ccc1Cl` [Example 959, (S)-5-(3-((1-(1H-tetrazol-1-yl)propan-2-yl)oxy)-4-chlorophenyl)-N-(3-(perfluoroethyl)-1-(2-(tetrahydro-2H-pyran-4-yl)-2-azaspiro[3.3]heptan-6-yl)-1H-pyrazol-4-yl)pyrimidin-2-amine] was run?
Answer: < 10 nM

Question: For `C[C@@H](Cn1cnnn1)Oc1cc(-c2cnc(Nc3cn(C4CC5(C4)CN(C4CCC4)C5)nc3OCC(F)(F)F)nc2)ccc1Cl` [Example 933, (S)-5-(3-((1-(1H-tetrazol-1-yl)propan-2-yl)oxy)-4-chlorophenyl)-N-(1-(2-cyclobutyl-2-azaspiro[3.3]heptan-6-yl)-3-(2,2,2-trifluoroethoxy)-1H-pyrazol-4-yl)pyrimidin-2-amine], which IC50 is on record?
Answer: < 10 nM

same assay, conditions: Table 2; CaMKIIδ binding assay, activity given as class A/B/C

Question: Which IC50 does the source give for `C[C@@H](Cn1cnnn1)Oc1cc(-c2cnc(Nc3cn(CC(C)(C)N)nc3C(F)(F)F)nc2)ccc1Cl` [Example 861, (S)-5-(3-((1-(1H-tetrazol-1-yl)propan-2-yl)oxy)-4-chlorophenyl)-N-(1-(2-amino-2-methylpropyl)-3-(trifluoromethyl)-1H-pyrazol-4-yl)pyrimidin-2-amine] here?
Answer: < 10 nM

Question: How did the IC50 turn out when `CCOC(=O)c1nn(CC)cc1Nc1ncc(-c2ccc(Cl)c(O[C@@H](C)Cn3cnnn3)c2)cn1` [Example 873, ethyl (S)-4-((5-(3-((1-(1H-tetrazol-1-yl)propan-2-yl)oxy)-4-chlorophenyl)pyrimidin-2-yl)amino)-1-ethyl-1H-pyrazole-3-carboxylate] was run?
Answer: < 10 nM

Question: How did the IC50 turn out when `C[C@@H](Cn1cccn1)Oc1cc(-c2cnc(Nc3cn([C@H]4CC[C@H](N5CCOCC5)CC4)nc3C(F)(F)F)nc2)ccc1C#N` [Example 786, 2-(((S)-1-(1H-pyrazol-1-yl)propan-2-yl)oxy)-4-(2-((1-(trans-4-morpholinocyclohexyl)-3-(trifluoromethyl)-1H-pyrazol-4-yl)amino)pyrimidin-5-yl)benzonitrile] was run?
Answer: 10 to 100 nM

Question: How did the IC50 turn out when `C[C@@H](Cn1cccn1)Oc1cc(-c2cnc(Nc3cn([C@H]4CC[C@@H](N5CCOCC5)CC4)nc3OCC(F)(F)F)nc2)ccc1C#N` [Example 797, 2-(((S)-1-(1H-pyrazol-1-yl)propan-2-yl)oxy)-4-(2-((1-(cis-4-morpholinocyclohexyl)-3-(2,2,2-trifluoroethoxy)-1H-pyrazol-4-yl)amino)pyrimidin-5-yl)benzonitrile] was run?
Answer: 10 to 100 nM

Question: For `C[C@@H](Cn1cnnn1)Oc1cc(-c2cnc(Nc3cn(C4CC5(C4)CN(C4COC4)C5)nc3C(F)(F)F)nc2)ccc1Cl` [Example 832, (S)-5-(3-((1-(1H-tetrazol-1-yl)propan-2-yl)oxy)-4-chlorophenyl)-N-(1-(2-(oxetan-3-yl)-2-azaspiro[3.3]heptan-6-yl)-3-(trifluoromethyl)-1H-pyrazol-4-yl)pyrimidin-2-amine], which IC50 is on record?
Answer: < 10 nM

Question: With `COCC(C)n1cc(Nc2ncc(-c3ccc(Cl)c(O[C@@H](C)Cn4cnnn4)c3)cn2)c(OCC(F)(F)F)n1` (stereo partly drawn) [Example 776, 5-(3-(((S)-1-(1H-tetrazol-1-yl)propan-2-yl)oxy)-4-chlorophenyl)-N-(1-(1-methoxypropan-2-yl)-3-(2,2,2-trifluoroethoxy)-1H-pyrazol-4-yl)pyrimidin-2-amine] as the compound, how does the IC50 read?
Answer: < 10 nM

Question: How did the IC50 turn out when `Cc1cc(Nc2ncc(-c3ccc(Cl)c(O[C@@H](C)Cn4cnnn4)c3)cn2)n(C(C)C)n1` [Example 742, (S)-5-(3-((1-(1H-tetrazol-1-yl)propan-2-yl)oxy)-4-chlorophenyl)-N-(1-isopropyl-3-methyl-1H-pyrazol-5-yl)pyrimidin-2-amine] was run?
Answer: 10 to 100 nM

Question: For `C[C@@H](Cn1cnnn1)Oc1cc(-c2cnc(Nc3cn(C)nc3OCC(F)(F)F)nc2)ccc1C#N` [Example 765, (S)-2-((1-(1H-tetrazol-1-yl)propan-2-yl)oxy)-4-(2-((1-methyl-3-(2,2,2-trifluoroethoxy)-1H-pyrazol-4-yl)amino)pyrimidin-5-yl)benzonitrile], which IC50 is on record?
Answer: < 10 nM

Question: Which IC50 does the source give for `C[C@@H](Cn1cnnn1)Oc1cc(-c2cnc(Nc3cn([C@H]4CC[C@H](N5CCOCC5)CC4)nc3C(F)(F)F)nc2)ccc1F` [Example 808, 5-(3-(((S)-1-(1H-tetrazol-1-yl)propan-2-yl)oxy)-4-fluorophenyl)-N-(1-(trans-4-morpholinocyclohexyl)-3-(trifluoromethyl)-1H-pyrazol-4-yl)pyrimidin-2-amine] here?
Answer: < 10 nM

Question: With `Cc1ccc(-c2cnc(Nc3cn([C@H]4CC[C@H](N5CCOCC5)CC4)nc3OCC(F)(F)F)nc2)cc1O[C@@H](C)Cn1cnnn1` [Example 811, 5-(3-(((S)-1-(1H-tetrazol-1-yl)propan-2-yl)oxy)-4-methylphenyl)-N-(1-(trans-4-morpholinocyclohexyl)-3-(2,2,2-trifluoroethoxy)-1H-pyrazol-4-yl)pyrimidin-2-amine] as the compound, how does the IC50 read?
Answer: < 10 nM

same assay, conditions: Table 2; activity class for CaMKIIδ

Question: `COc1cc(N2CCN(C3CCOCC3)CC2)ncc1Nc1ncc(-c2ccc(Cl)c(O[C@@H](C)Cn3cnnn3)c2)cn1` [Example 650, (S)-5-(3-((1-(1H-tetrazol-1-yl)propan-2-yl)oxy)-4-chlorophenyl)-N-(4-methoxy-6-(4-(tetrahydro-2H-pyran-4-yl)piperazin-1-yl)pyridin-3-yl)pyrimidin-2-amine] was tested. Which IC50 did it give?
Answer: < 10 nM

Question: With `C[C@@H](Cn1cnnn1)Oc1cc(-c2cnc(Nc3cn([C@H]4CC[C@@H](C(=O)O)CC4)nc3C(F)(F)F)nc2)ccc1Cl` [Example 625, cis-(S)-4-(4-((5-(3-((1-(1H-tetrazol-1-yl)propan-2-yl)oxy)-4-chlorophenyl)pyrimidin-2-yl)amino)-3-(trifluoromethyl)-1H-pyrazol-1-yl)cyclohexane-1-carboxylic acid] as the compound, how does the IC50 read?
Answer: ≥ 100 nM

Question: How did the IC50 turn out when `COc1nc(N2CCCN(C3CCOCC3)CC2)ccc1Nc1ncc(-c2ccc(Cl)c(O[C@@H](C)Cn3cnnn3)c2)cn1` [Example 667, (S)-5-(3-((1-(1H-tetrazol-1-yl)propan-2-yl)oxy)-4-chlorophenyl)-N-(2-methoxy-6-(4-(tetrahydro-2H-pyran-4-yl)-1,4-diazepan-1-yl)pyridin-3-yl)pyrimidin-2-amine] was run?
Answer: < 10 nM
